Experimental data published in article PMC4491811, “Force-induced chemical reactions on the metal centre in a single metalloprotein molecule” (Nature Communications, 2015).

Molecular target: T1, rubredoxin (RD), in polyprotein (RD-GB1)n (Pyrococcus furiosus, UniProt P24297)
T1 construct: gene rub; full-length ferric (FeS4) rubredoxin fused to GB1 fingerprint domain, His-tag purified from E. coli DH5alpha, linked by BM(PEO)3 thiol-maleimide coupling into (RD-GB1)n
T1 sequence (P24297 2-54): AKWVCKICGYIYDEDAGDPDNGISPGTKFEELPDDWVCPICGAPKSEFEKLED
Test: single-molecule AFM force clamp, FeS4 rupture rate against [KSCN]
Assay type: binding
Details: pH 7.4, 100 mM Tris and NaCl, KSCN 5-800 mM; ferric-thiolate bond rupture rate extrapolated to zero force (Bell-Evans); FeS4 centre exposed by force-induced partial unfolding; not an affinity

Question: For `N#CS` [SCN^−], which “k (second-order rate constant of ligand substitution)” value is on record?
Answer: The value was 0.36 M⁻¹ s⁻¹.
